Assay results taken from PubChem BioAssay (NCI).
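Assay format: 96-well plates, 48-hour exposure. TGI denotes the concentration required for complete inhibition of growth.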

These molecules were tested on HCT-116 colon (assay: NCI tumour cell line growth inhibition, 48 h).

SMILES	TGI [µM]
COc1nc(NC2OC(COC(C)=O)C(OC(C)=O)C(OC(C)=O)C2OC(C)=O)c2c(OC(C)=O)c(C)c(=O)oc2n1 (configuration not stated)	> 100
CC1(C)OC(=O)C(c2cccs2)C(=O)O1	> 100

Each molecule was assayed on OVCAR-3 ovarian (assay: NCI tumour cell line growth inhibition, 48 h).

SMILES	TGI [µM]
CCCc1nc(N)nc(C(=O)Nc2cccc(C(F)(F)F)c2)c1CC	> 100
O=C1c2ccccc2-c2ccccc2C(=O)C1(Br)Br	27.4
O=C1C(Cl)C(c2cc(Br)cc(Br)c2O)N1n1cnc2ccccc2c1=O (configuration not stated)	79.4
COc1nc(NC2OC(COC(C)=O)C(OC(C)=O)C(OC(C)=O)C2OC(C)=O)c2c(OC(C)=O)c(C)c(=O)oc2n1 (configuration not stated)	> 100
CC1(C)OC(=O)C(c2cccs2)C(=O)O1	> 100

The molecules below were run on HL-60(TB) leukemia (assay: NCI tumour cell line growth inhibition, 48 h).

SMILES	TGI [µM]
CCCc1nc(N)nc(C(=O)Nc2cccc(C(F)(F)F)c2)c1CC	> 100
O=C1c2ccccc2-c2ccccc2C(=O)C1(Br)Br	6.47
O=C1C(Cl)C(c2cc(Br)cc(Br)c2O)N1n1cnc2ccccc2c1=O (configuration not stated)	48
COc1nc(NC2OC(COC(C)=O)C(OC(C)=O)C(OC(C)=O)C2OC(C)=O)c2c(OC(C)=O)c(C)c(=O)oc2n1 (configuration not stated)	> 100

Each molecule was assayed on RPMI-8226 leukemia (assay: NCI tumour cell line growth inhibition, 48 h).

SMILES	TGI [µM]
CCCc1nc(N)nc(C(=O)Nc2cccc(C(F)(F)F)c2)c1CC	> 100
O=C1c2ccccc2-c2ccccc2C(=O)C1(Br)Br	4.65
O=C1C(Cl)C(c2cc(Br)cc(Br)c2O)N1n1cnc2ccccc2c1=O (configuration not stated)	37.4
COc1nc(NC2OC(COC(C)=O)C(OC(C)=O)C(OC(C)=O)C2OC(C)=O)c2c(OC(C)=O)c(C)c(=O)oc2n1 (configuration not stated)	> 100
CC1(C)OC(=O)C(c2cccs2)C(=O)O1	> 100

What follows are molecules tested on SK-MEL-5 melanoma (assay: NCI tumour cell line growth inhibition, 48 h).

SMILES	TGI [µM]
CCCc1nc(N)nc(C(=O)Nc2cccc(C(F)(F)F)c2)c1CC	> 100
O=C1c2ccccc2-c2ccccc2C(=O)C1(Br)Br	31.1
O=C1C(Cl)C(c2cc(Br)cc(Br)c2O)N1n1cnc2ccccc2c1=O (configuration not stated)	35.6
COc1nc(NC2OC(COC(C)=O)C(OC(C)=O)C(OC(C)=O)C2OC(C)=O)c2c(OC(C)=O)c(C)c(=O)oc2n1 (configuration not stated)	> 100
CC1(C)OC(=O)C(c2cccs2)C(=O)O1	> 100

Each molecule was assayed on HCT-15 colon (assay: NCI tumour cell line growth inhibition, 48 h).

SMILES	TGI [µM]
CCCc1nc(N)nc(C(=O)Nc2cccc(C(F)(F)F)c2)c1CC	> 100
O=C1c2ccccc2-c2ccccc2C(=O)C1(Br)Br	25
O=C1C(Cl)C(c2cc(Br)cc(Br)c2O)N1n1cnc2ccccc2c1=O (configuration not stated)	> 100
COc1nc(NC2OC(COC(C)=O)C(OC(C)=O)C(OC(C)=O)C2OC(C)=O)c2c(OC(C)=O)c(C)c(=O)oc2n1 (configuration not stated)	> 100
CC1(C)OC(=O)C(c2cccs2)C(=O)O1	> 100

These molecules were tested on SF-539 CNS (assay: NCI tumour cell line growth inhibition, 48 h).

SMILES	TGI [µM]
CCCc1nc(N)nc(C(=O)Nc2cccc(C(F)(F)F)c2)c1CC	> 100
O=C1c2ccccc2-c2ccccc2C(=O)C1(Br)Br	23.7
COc1nc(NC2OC(COC(C)=O)C(OC(C)=O)C(OC(C)=O)C2OC(C)=O)c2c(OC(C)=O)c(C)c(=O)oc2n1 (configuration not stated)	> 100
CC1(C)OC(=O)C(c2cccs2)C(=O)O1	> 100

Each molecule was assayed on MALME-3M melanoma (assay: NCI tumour cell line growth inhibition, 48 h).

SMILES	TGI [µM]
CCCc1nc(N)nc(C(=O)Nc2cccc(C(F)(F)F)c2)c1CC	> 100
O=C1c2ccccc2-c2ccccc2C(=O)C1(Br)Br	13.6
O=C1C(Cl)C(c2cc(Br)cc(Br)c2O)N1n1cnc2ccccc2c1=O (configuration not stated)	62.9
COc1nc(NC2OC(COC(C)=O)C(OC(C)=O)C(OC(C)=O)C2OC(C)=O)c2c(OC(C)=O)c(C)c(=O)oc2n1 (configuration not stated)	> 100
CC1(C)OC(=O)C(c2cccs2)C(=O)O1	> 100

Each molecule was assayed on OVCAR-5 ovarian (assay: NCI tumour cell line growth inhibition, 48 h).

SMILES	TGI [µM]
CCCc1nc(N)nc(C(=O)Nc2cccc(C(F)(F)F)c2)c1CC	> 100
O=C1c2ccccc2-c2ccccc2C(=O)C1(Br)Br	32
O=C1C(Cl)C(c2cc(Br)cc(Br)c2O)N1n1cnc2ccccc2c1=O (configuration not stated)	71.8
COc1nc(NC2OC(COC(C)=O)C(OC(C)=O)C(OC(C)=O)C2OC(C)=O)c2c(OC(C)=O)c(C)c(=O)oc2n1 (configuration not stated)	> 100
CC1(C)OC(=O)C(c2cccs2)C(=O)O1	> 100

The molecules below were run on EKVX NSCLC (assay: NCI tumour cell line growth inhibition, 48 h).

SMILES	TGI [µM]
CCCc1nc(N)nc(C(=O)Nc2cccc(C(F)(F)F)c2)c1CC	> 100
O=C1c2ccccc2-c2ccccc2C(=O)C1(Br)Br	27.7
O=C1C(Cl)C(c2cc(Br)cc(Br)c2O)N1n1cnc2ccccc2c1=O (configuration not stated)	85.9
COc1nc(NC2OC(COC(C)=O)C(OC(C)=O)C(OC(C)=O)C2OC(C)=O)c2c(OC(C)=O)c(C)c(=O)oc2n1 (configuration not stated)	> 100
CC1(C)OC(=O)C(c2cccs2)C(=O)O1	> 100

These molecules were tested on HT29 colon (assay: NCI tumour cell line growth inhibition, 48 h).

SMILES	TGI [µM]
CCCc1nc(N)nc(C(=O)Nc2cccc(C(F)(F)F)c2)c1CC	> 100
O=C1c2ccccc2-c2ccccc2C(=O)C1(Br)Br	32.7
O=C1C(Cl)C(c2cc(Br)cc(Br)c2O)N1n1cnc2ccccc2c1=O (configuration not stated)	> 100
COc1nc(NC2OC(COC(C)=O)C(OC(C)=O)C(OC(C)=O)C2OC(C)=O)c2c(OC(C)=O)c(C)c(=O)oc2n1 (configuration not stated)	> 100
CC1(C)OC(=O)C(c2cccs2)C(=O)O1	> 100

The molecules below were run on CCRF-CEM leukemia (assay: NCI tumour cell line growth inhibition, 48 h).

SMILES	TGI [µM]
O=C1c2ccccc2-c2ccccc2C(=O)C1(Br)Br	9.26
O=C1C(Cl)C(c2cc(Br)cc(Br)c2O)N1n1cnc2ccccc2c1=O (configuration not stated)	49.5
COc1nc(NC2OC(COC(C)=O)C(OC(C)=O)C(OC(C)=O)C2OC(C)=O)c2c(OC(C)=O)c(C)c(=O)oc2n1 (configuration not stated)	> 100
CC1(C)OC(=O)C(c2cccs2)C(=O)O1	> 100

These molecules were tested on UACC-257 melanoma (assay: NCI tumour cell line growth inhibition, 48 h).

SMILES	TGI [µM]
CCCc1nc(N)nc(C(=O)Nc2cccc(C(F)(F)F)c2)c1CC	> 100
O=C1c2ccccc2-c2ccccc2C(=O)C1(Br)Br	22.8
O=C1C(Cl)C(c2cc(Br)cc(Br)c2O)N1n1cnc2ccccc2c1=O (configuration not stated)	45.3
COc1nc(NC2OC(COC(C)=O)C(OC(C)=O)C(OC(C)=O)C2OC(C)=O)c2c(OC(C)=O)c(C)c(=O)oc2n1 (configuration not stated)	> 100
CC1(C)OC(=O)C(c2cccs2)C(=O)O1	> 100

These molecules were tested on U251 CNS (assay: NCI tumour cell line growth inhibition, 48 h).

SMILES	TGI [µM]
CCCc1nc(N)nc(C(=O)Nc2cccc(C(F)(F)F)c2)c1CC	> 100
O=C1c2ccccc2-c2ccccc2C(=O)C1(Br)Br	29.4
O=C1C(Cl)C(c2cc(Br)cc(Br)c2O)N1n1cnc2ccccc2c1=O (configuration not stated)	31.8
COc1nc(NC2OC(COC(C)=O)C(OC(C)=O)C(OC(C)=O)C2OC(C)=O)c2c(OC(C)=O)c(C)c(=O)oc2n1 (configuration not stated)	> 100
CC1(C)OC(=O)C(c2cccs2)C(=O)O1	> 100

What follows are molecules tested on CAKI-1 renal (assay: NCI tumour cell line growth inhibition, 48 h).

SMILES	TGI [µM]
CCCc1nc(N)nc(C(=O)Nc2cccc(C(F)(F)F)c2)c1CC	> 100
O=C1c2ccccc2-c2ccccc2C(=O)C1(Br)Br	16.7
O=C1C(Cl)C(c2cc(Br)cc(Br)c2O)N1n1cnc2ccccc2c1=O (configuration not stated)	88.3
